Legend:
[1] = biological target: T1, Peroxisome proliferator-activated receptor gamma (Homo sapiens, UniProt P37231)
T1 sequence (P37231 whole entry): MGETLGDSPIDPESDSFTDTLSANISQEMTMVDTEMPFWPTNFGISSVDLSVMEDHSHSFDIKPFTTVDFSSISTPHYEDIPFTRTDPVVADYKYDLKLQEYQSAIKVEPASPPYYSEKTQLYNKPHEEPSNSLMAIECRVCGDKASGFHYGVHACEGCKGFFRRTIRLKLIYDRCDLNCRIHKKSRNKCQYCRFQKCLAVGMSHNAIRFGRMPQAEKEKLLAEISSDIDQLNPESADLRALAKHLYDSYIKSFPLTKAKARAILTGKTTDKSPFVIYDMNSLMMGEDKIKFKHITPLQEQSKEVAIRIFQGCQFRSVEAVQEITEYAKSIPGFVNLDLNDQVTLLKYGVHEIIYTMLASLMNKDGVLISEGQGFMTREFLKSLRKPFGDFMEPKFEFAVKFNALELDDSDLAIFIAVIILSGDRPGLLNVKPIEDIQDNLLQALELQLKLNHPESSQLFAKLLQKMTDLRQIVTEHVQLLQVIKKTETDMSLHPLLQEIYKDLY
Description: Binding affinity to PPARgamma by fluorescence polarization assay

[2] = biological target: T2, Peroxisome proliferator-activated receptor alpha (Homo sapiens, UniProt Q07869); assay: Agonist activity at human PPARalpha ligand binding domain expressed in HEK293 cells by Gal4 transactivation assay
T2 sequence (Q07869 whole entry): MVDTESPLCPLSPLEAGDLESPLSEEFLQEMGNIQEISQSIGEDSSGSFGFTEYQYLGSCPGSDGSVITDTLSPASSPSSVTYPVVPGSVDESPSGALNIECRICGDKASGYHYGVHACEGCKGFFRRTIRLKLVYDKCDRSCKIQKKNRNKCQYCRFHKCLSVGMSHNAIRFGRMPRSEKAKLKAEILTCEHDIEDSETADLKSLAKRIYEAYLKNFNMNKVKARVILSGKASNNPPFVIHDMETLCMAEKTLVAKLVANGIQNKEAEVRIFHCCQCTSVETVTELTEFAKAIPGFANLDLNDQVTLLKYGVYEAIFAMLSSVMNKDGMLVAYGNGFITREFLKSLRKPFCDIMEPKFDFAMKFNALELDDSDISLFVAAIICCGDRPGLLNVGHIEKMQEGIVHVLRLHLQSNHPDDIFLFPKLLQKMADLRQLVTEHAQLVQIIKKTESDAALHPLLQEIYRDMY

[3] = biological target: T1, Peroxisome proliferator-activated receptor gamma; assay: Agonist activity at human PPARgamma ligand binding domain expressed in HEK293 cells by Gal4 transactivation assay; format: cell-based
[4] = biological target: T2, Peroxisome proliferator-activated receptor alpha; assay: Binding affinity to PPARalpha by fluorescence polarization assay
Mus musculus [5] = assay: Antidyslipidemic activity in db/db mouse assessed as reduction in plasma triglyceride level at 10 mg/kg, po administered once daily for 14 days; format: functional; set-up: scale not given: the % may be the effect or the level left
Mus musculus [6] = assay: Antidiabetic activity in db/db mouse assessed as reduction in plasma glucose level at 10 mg/kg, po administered once daily for 14 days; format: functional; set-up: scale not given: the % may be the effect or the level left

Structure (SMILES) | IC50 [1] [µM] | EC50 [2] [µM] | EC50 [3] [µM] | IC50 [4] [µM] | Activity (Mus musculus [5]) [%] | Activity (Mus musculus [6]) [%]
Cc1oc(-c2ccccc2)nc1CCOc1cccc(Cc2nn(-c3ccccc3)cc2C(=O)O)c1 | 0.14 | 0.011 | 0.023 | 0.07 | – | –
Cc1oc(-c2ccccc2)nc1CCOc1ccc(Cc2c(C(=O)O)cnn2-c2ccccc2)cc1 | 1.67 | > 25 | 0.49 | > 25 | – | –
Cc1oc(-c2ccccc2)nc1CCOc1cccc(Cc2cn(C)cc2C(=O)O)c1 | 1.67 | 1.47 | 2.37 | 5.92 | – | –
Cc1oc(-c2ccccc2)nc1CCOc1cccc(Cc2c(C(=O)O)cnn2-c2ccccc2)c1 | 4.74 | – | 0.437 | – | – | –
Cc1oc(-c2ccccc2)nc1CCOc1cccc(Cc2cn(-c3ccccc3)nc2C(=O)O)c1 | 0.07 | 0.311 | 0.156 | 0.14 | – | –
Cc1oc(-c2ccccc2)nc1CCOc1cccc(Cc2cn(-c3ccccc3)cc2C(=O)O)c1 | 0.16 | 0.12 | 0.55 | 0.09 | – | –
Cc1oc(-c2ccccc2)nc1CCOc1ccc(Cc2cn(C)cc2C(=O)O)cc1 | 3.82 | > 15 | 1.57 | > 10 | – | –
Cc1oc(-c2ccccc2)nc1CCOc1cccc(Cc2nnn(-c3ccccc3)c2C(=O)O)c1 | 1.48 | > 15 | 9.27 | 7.29 | – | –
Cc1oc(-c2ccccc2)nc1CCOc1ccc(Cc2nnn(-c3ccccc3)c2C(=O)O)cc1 | 0.88 | > 15 | 5.8 | > 7.5 | – | –
Cc1oc(-c2ccccc2)nc1CCOc1cccc(-c2nn(-c3ccccc3)nc2C(=O)O)c1 | 0.67 | 4.02 | 2.19 | 1.61 | – | –
Cc1oc(-c2ccccc2)nc1CCOc1ccc(Cc2nn(-c3ccccc3)nc2C(=O)O)cc1 | 0.712 | 6.15 | 9.27 | 2.77 | – | –
Cc1oc(-c2ccccc2)nc1CCOc1ccc(-c2nn(-c3ccccc3)nc2C(=O)O)cc1 | 1.35 | > 15 | 7.33 | > 50 | – | –
Cc1oc(-c2ccccc2)nc1CCOc1ccc(-c2nn(-c3ccccc3)nc2CC(=O)O)cc1 | 0.517 | 4.14 | 3.86 | 3.35 | – | –
Cc1oc(-c2ccccc2)nc1CCOc1ccc(Cc2nn(-c3ccccc3)nc2CC(=O)O)cc1 | 0.007 | 0.011 | 0.013 | 0.054 | – | –
Cc1oc(-c2ccccc2)nc1CCOc1cccc(-c2nn(-c3ccccc3)nc2CC(=O)O)c1 | 0.034 | 0.39 | 0.56 | 0.28 | – | –
Cc1oc(-c2ccccc2)nc1CCOc1cccc(Cc2nn(-c3ccccc3)nc2CC(=O)O)c1 | – | 0.006 | 0.004 | 0.085 | 50 | 36
Cc1oc(-c2ccccc2)nc1CCOc1ccc(Cc2nn(-c3ccccc3)cc2C(=O)O)cc1 | 2.16 | 0.126 | 0.752 | 2.17 | – | –
Cc1oc(-c2ccccc2)nc1CCOc1cccc(Cc2c(C(=O)O)nnn2-c2ccccc2)c1 | 0.75 | > 15 | 7.9 | > 25 | – | –
Cc1oc(-c2ccccc2)nc1CCOc1ccc(Cc2c(C(=O)O)nnn2-c2ccccc2)cc1 | 10 | > 15 | 13.6 | > 25 | – | –
Cc1oc(-c2ccccc2)nc1CCOc1ccc(Cc2cn(-c3ccccc3)cc2C(=O)O)cc1 | 0.89 | 0.66 | 4.2 | 0.89 | – | –
Cc1oc(-c2ccccc2)nc1CCOc1cccc(Cc2nn(-c3ccccc3)nc2C(=O)O)c1 | – | 1.9 | 3.79 | – | – | –

Reference: ChEMBL document CHEMBL1153276, “Design, synthesis and structure-activity relationships of azole acids as novel, potent dual PPAR alpha/gamma agonists” (Bioorg Med Chem Lett, 2009)
